This is an account of results in patent publication US9902964B2, “Growth arrested cells useful for producing compounds” (priority 2014, dated 2018).

Holding throughout (format): cell-based, Escherichia coli
The test system of experiment [1] is persister cells of MG1655. Briefly: Antibiotic resistance of naturally occurring persister cells isolated by ofloxacin treatment (CFU count). To be noted: chloramphenicol 30 μg/ml, ampicillin 100 μg/ml, 4 h at 37° C.; P=0.3, unpaired t test. As for the experimental part: Persister cells were prepared in triplicate by ofloxacin treatment of stationary-phase cultures based on a previously described protocol (32). Overnight cultures of MG1655 cells grown in LB medium for 20 h were treated with ofloxacin for 3 h at 37° C., after which cells were pelleted, washed with fresh LB medium, pelleted again, and resuspended in antibiotic-free LB medium. After resuspension, chloramphenicol (30 μg/ml) and ampicillin (100 μg/ml) were added singly or in combination, and cells were incubated at 37° C. with shaking for 4 h. Samples were removed, pelleted once, washed with LB medium, resuspended, and serially diluted. A 10-μl volume of the serial dilutions was spot plated on an LB agar plate, which was incubated at 37° C. overnight. Colonies were counted the following day.

Experiment [2] relates to HipA-arrested cells (MG1655/pHipA). Briefly: β-Lactam susceptibility of HipA-arrested cells (optical density, lysis). As for the experimental part: Biological triplicates of MG1655/pHipA cells were inoculated into 30 ml of MOPS-M9 medium and grown at 37° C. until an OD600 of 0.5 was reached. aTc was added to reach 50 ng/ml, and the cultures were split into two 12-ml subcultures. At 2.5 h later, carbenicillin (100 μg/ml) was added to one subculture and optical densities were measured. For comparison of the levels of β-lactam tolerance of WT and ΔrelA cultures expressing HipA, biological triplicates of the WT/pHipA and ΔrelA/pHipA strains were inoculated into 5 ml of MOPS-M9 medium and grown at 37° C. HipA expression was induced with 50 ng/ml aTc when the OD600 reached ˜0.3. Ampicillin was added to reach a final concentration of 100 μg/ml 1.5 h later, and optical densities were monitored.

The next experiment deals with MG1655/pHipA cells. In words: Measurement of DNA and RNA concentrations in HipA-arrested cells. To be noted: 30 μg/ml chloramphenicol added 1 h after HipA induction. Here is the method:
Cultures of MG1655/pHipA cells were inoculated into 40 ml of MOPS-M9 medium in 250-ml unbaffled Erlenmeyer flasks and incubated with shaking at 37° C. When the OD600 reached ˜0.3, aTc was added to reach 50 ng/ml. After 1 h of HipA induction, a sample was removed for DNA or RNA extraction, the cultures were split into two 15-ml cultures, and 30 μg/ml chloramphenicol was added to one of the cultures. For comparison of DNA and RNA synthesis results in WT and ΔrelA strains expressing HipA, biological triplicates of the WT/pHipA and ΔrelA/pHipA strains were grown in MOPS-M9 medium at 37° C. to an OD600 of 0.2 to 0.4, at which point HipA expression was induced by addition of aTc to 50 ng/ml. Samples were processed per a previously published protocol (27) using Picogreen (Invitrogen) for DNA quantification. RNA was quantified by measurement of fluorescence using the Quant-It assay (catalog no. Q33140; Invitrogen) following the manufacturer's instructions. Fluorescence was measured using a Spectromax M2 reader.

For experiment [3], the system named is ppGpp concentration within HipA-arrested cells. In words: ppGpp measurements performed with HPLC in HipA-arrested cells. To be noted: chloramphenicol treatment, within 15 min. The text has this: ppGpp and nucleotides were extracted from cells grown on agar-supported nylon filters, following a protocol inspired by the rapid-quenching and metabolite extraction approach described in reference 25. We adopted this technique to avoid perturbing ppGpp levels with lengthy cell harvesting and extraction procedures, as the enzymes that generate and degrade ppGpp are known to respond rapidly to external conditions (26). Briefly, cells grown in liquid medium to an optical density at 600 nm (OD600) of ˜0.1 were transferred to nylon filters and adhered to solid agar plates containing our modified MOPS-M9 medium. […] Concentrations of ppGpp and GTP were measured using anion-exchange chromatography and a Partisil 5 Sax Rac II column (catalog no. 422-227; Hichrom Limited), with a silica Nova-Pak guard column (catalog no. WAT046845; Whatman) per a protocol described previously (26) and modified for brevity. […] The column temperature was maintained at 50° C., and absorbance was monitored at 254 nm. […]
Cultures of MG1655/pHipA cells were inoculated into 40 ml of MOPS-M9 medium in 250-ml unbaffled Erlenmeyer flasks and incubated with shaking at 37° C. […] Samples were processed per a previously published protocol (27) using Picogreen (Invitrogen) for DNA quantification. […] Fluorescence was measured using a Spectromax M2 reader.

For `CC1(C)S[C@@H]2[C@H](NC(=O)[C@H](N)c3ccccc3)C(=O)N2[C@H]1C(=O)O` [ampicillin], the “reduction in CFU of isolated persisters” value in experiment [1] is 41%±13%. In addition, the “ampicillin resistance of ΔrelA strain expressing HipA” value in experiment [2] (ampicillin 100 μg/ml, ΔrelA/pHipA strain, FIG. 9D) is “did not confer ampicillin resistance”.

Take `O=C(N[C@H](CO)[C@H](O)c1ccc([N+](=O)[O-])cc1)C(Cl)Cl` [chloramphenicol]: the “inhibition of DNA synthesis in HipA-arrested cells” value in the experiment on MG1655/pHipA cells (FIG. 9A) was “relieved inhibition”. For the same compound, the “inhibition of RNA synthesis in HipA-arrested cells” value with MG1655/pHipA cells (FIG. 9B) is on record as “relieved inhibition”. In addition, the “decrease of ppGpp concentration within HipA-arrested cells” value in experiment [3] is listed as 60% (±20%).

`CC1(C)S[C@@H]2[C@H](NC(=O)C(C(=O)O)c3ccccc3)C(=O)N2[C@H]1C(=O)O` (stereo partly drawn) [carbenicillin]: in experiment [2] (carbenicillin 100 μg/ml, HipA induced with 50 ng/ml aTc, FIG. 9C), the “lysis of HipA-arrested WT cells” value is recorded as “did not induce lysis”.
